IC50 data for 5 molecules are collected here from patent US9670161B2, “5-fluoro-N-(pyridin-2-yl)pyridin-2-amine derivatives containing a sulfone group” (BAYER PHARMA AKTIENGESELLSCHAFT, priority 2012, dated 2017).

For one test, the target named is CDK2/CycE (Homo sapiens (Human), UniProt P24941). Briefly: CDK2/CycE high ATP kinase assay (TR-FRET, 2 mM ATP). The test is classed as biochemical. The following applies: Method 2b. How it is done: 2b. CDK2/CycE High ATP Kinase Assay
CDK2/CycE-inhibitory activity of compounds of the present invention at 2 mM adenosine-tri-phosphate (ATP) was quantified employing the CDK2/CycE TR-FRET (TR-FRET=Time Resolved Fluorescence Energy Transfer) assay as described in the following paragraphs.
Recombinant fusion proteins of GST and human CDK2 and of GST and human CycE, expressed in insect cells (Sf9) and purified by Glutathion-Sepharose affinity chromatography, were purchase from ProQinase GmbH (Freiburg, Germany). As substrate for the kinase reaction biotinylated peptide biotin-Ttds-YISPLKSPYKISEG (C-terminus in amid form) was used which can be purchased e.g. form the company JERINI peptide technologies (Berlin, Germany).
(§1) For the assay 50 nl of a 100 fold concentrated solution of the test compound in DMSO was pipetted into a black low volume 384 well microtiter plate (Greiner Bio-One, Frickenhausen, Germany), 2 μl of a solution of CDK2/CycE in aqueous assay buffer [50 mM Tris/HCl pH 8.0, 10 mM MgCl2, 1.0 mM dithiothreitol, 0.1 mM sodium ortho-vanadate, 0.01% (v/v) Nonidet-P40 (Sigma)] were added and the mixture was incubated for 15 min at 22° C. to allow pre-binding of the test compounds to the enzyme before the start of the kinase reaction. Then the kinase reaction was started by the addition of 3 μl of a solution ATP (3.33 mM=>final conc. in the 5 μl assay volume is 2 mM) and substrate (1.25 μM=>final conc. in the 5 μl assay volume is 0.75 μM) in assay buffer and the resulting mixture was incubated for a reaction time of 25 min at 22° C. The concentration of CDK2/CycE was adjusted depending of the activity of the enzyme lot and was chosen appropriate to have the assay in the linear range, typical concentrations were in the range of 15 ng/ml. The reaction was stopped by the addition of 5 μl of a solution of TR-FRET detection reagents (0.2 μM streptavidine-XL665 [Cisbio Bioassays, Codolet, France] and 1 nM anti-RB(pSer807/pSer811)-antibody from BD Pharmingen [#558389] and 1.2 nM LANCE EU-W1024 labeled anti-mouse IgG antibody [Perkin-Elmer, product no. AD0077, as an alternative a Terbium-cryptate-labeled anti-mouse IgG antibody from Cisbio Bioassays can be used]) in an aqueous EDTA-solution (100 mM EDTA, 0.2% (w/v) bovine serum albumin in 100 mM HEPES/NaOH pH 7.0).
(§2) The resulting mixture was incubated 1 h at 22° C. to allow the formation of complex between the phosphorylated biotinylated peptide and the detection reagents. Subsequently the amount of phosphorylated substrate was evaluated by measurement of the resonance energy transfer from the Eu-chelate to the streptavidine-XL. Therefore, the fluorescence emissions at 620 nm and 665 nm after excitation at 350 nm were measured in a TR-FRET reader, e.g. a Rubystar (BMG Labtechnologies, Offenburg, Germany) or a Viewlux (Perkin-Elmer). The ratio of the emissions at 665 nm and at […] was taken as the measure for the amount of phosphorylated substrate. The data were normalised (enzyme reaction without inhibitor=0% inhibition, all other assay components but no enzyme=100% inhibition).

The target of another test is CDK9/CycT1 (Homo sapiens (Human), UniProt P50750). Briefly: CDK9/CycT1 kinase assay (TR-FRET, 10 μM ATP). The test is classed as biochemical. The following applies: Method 1a.
Source text: 1a. CDK9/CycT1 Kinase Assay:
CDK9/CycT1-inhibitory activity of compounds of the present invention was quantified employing the CDK9/CycT1 TR-FRET assay as described in the following paragraphs:
Recombinant full-length His-tagged human CDK9 and CycT1, expressed in insect cells and purified by Ni-NTA affinity chromatography, were purchased from Invitrogen (Cat. No PV4131). As substrate for the kinase reaction biotinylated peptide biotin-Ttds-YISPLKSPYKISEG (C-terminus in amid form) was used which can be purchased e.g. form the company JERINI Peptide Technologies (Berlin, Germany).
as §1, with “CDK9/CycT1” for “CDK2/CycE”, “of adenosine-tri-phosphate (ATP, 16.7” for “ATP (3.33 mM=>final conc. in the 5 μl assay volume is 2 mM) and substrate (1.25”, “10 μM) and substrate (1.67 μM=>final conc. in the 5 μl assay volume is 1” for “0.75”, “1 μg/mL.” for “15 ng/ml.”, “AD0077])” for “AD0077, as an alternative a Terbium-cryptate-labeled anti-mouse IgG antibody from Cisbio Bioassays can be used])”
as §2, with “nm was” for “nm were”, “a HTRF” for “a TR-FRET”
A general note: Time-resolved FRET reads energy transfer from a long-lived donor to a nearby acceptor.

Chain of CDK9/CycT1 (P50750 whole entry): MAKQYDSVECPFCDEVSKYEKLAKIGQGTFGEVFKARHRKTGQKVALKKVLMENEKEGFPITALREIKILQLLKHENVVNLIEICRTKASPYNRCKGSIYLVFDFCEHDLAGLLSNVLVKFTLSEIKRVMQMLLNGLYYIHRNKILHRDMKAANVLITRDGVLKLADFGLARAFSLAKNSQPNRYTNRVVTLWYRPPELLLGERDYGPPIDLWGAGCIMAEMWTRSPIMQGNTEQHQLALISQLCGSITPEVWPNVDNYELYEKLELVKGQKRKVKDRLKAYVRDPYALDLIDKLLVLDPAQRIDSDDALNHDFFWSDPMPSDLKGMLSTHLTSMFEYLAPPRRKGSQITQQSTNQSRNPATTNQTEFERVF
Chain of CDK9/CycT1 (O60563 whole entry partner): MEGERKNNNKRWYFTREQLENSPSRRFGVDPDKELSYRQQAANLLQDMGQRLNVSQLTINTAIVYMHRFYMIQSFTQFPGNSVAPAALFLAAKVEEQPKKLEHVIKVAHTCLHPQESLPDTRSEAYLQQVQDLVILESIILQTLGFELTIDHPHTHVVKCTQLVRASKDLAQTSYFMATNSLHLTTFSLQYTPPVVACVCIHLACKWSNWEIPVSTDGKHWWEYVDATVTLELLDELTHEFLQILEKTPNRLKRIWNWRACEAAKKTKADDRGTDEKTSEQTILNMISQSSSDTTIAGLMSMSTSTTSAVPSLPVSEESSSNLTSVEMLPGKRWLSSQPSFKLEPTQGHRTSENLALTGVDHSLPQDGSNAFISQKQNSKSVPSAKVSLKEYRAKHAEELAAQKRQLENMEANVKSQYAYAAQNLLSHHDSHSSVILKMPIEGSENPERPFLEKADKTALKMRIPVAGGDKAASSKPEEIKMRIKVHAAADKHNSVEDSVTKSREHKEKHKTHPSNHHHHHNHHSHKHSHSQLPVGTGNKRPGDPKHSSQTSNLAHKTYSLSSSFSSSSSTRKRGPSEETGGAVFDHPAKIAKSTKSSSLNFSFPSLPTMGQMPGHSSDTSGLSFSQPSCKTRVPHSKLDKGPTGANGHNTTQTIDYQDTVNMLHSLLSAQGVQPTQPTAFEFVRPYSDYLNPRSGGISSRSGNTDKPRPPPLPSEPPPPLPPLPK

What is called IC50 is the concentration needed to halve the response being measured. High values mean lower potency, low ones higher potency. With `COc1cc(F)ccc1-c1cc(Nc2cc(CS(C)(=O)=O)cc(C(F)(F)F)n2)ncc1F` [Example 4, 5-Fluoro-4-(4-fluoro-2-methoxyphenyl)-N-{4-[(methylsulfonyl)methyl]-6-(trifluoromethyl)pyridin-2-yl}pyridin-2-amine], the half-inhibitory concentration (IC50) against CDK2/CycE is 169 nM; against CDK9/CycT1 it was 4 nM.

On to `COc1cc(F)ccc1-c1cc(Nc2cc(CS(C)(=O)=O)ccn2)ncc1F` [Example 1, 5-Fluoro-4-(4-fluoro-2-methoxyphenyl)-N-{4-[(methylsulfonyl)methyl]pyridin-2-yl}pyridin-2-amine], for which the half-maximal inhibitory concentration (IC50) against CDK2/CycE was found to be 2180 nM; against CDK9/CycT1, 2 nM.

In the case of `COc1cc(F)ccc1-c1cc(Nc2cc(CS(C)(=O)=O)cc(C)n2)ncc1F` [Example 2, 5-Fluoro-4-(4-fluoro-2-methoxyphenyl)-N-{6-methyl-4-[(methylsulfonyl)methyl]pyridin-2-yl}pyridin-2-amine], the IC50 on CDK2/CycE amounted to 625 nM; on CDK9/CycT1 it was 3 nM.

`COc1cc(F)ccc1-c1cc(Nc2cc(CS(C)(=O)=O)cc(C(F)F)n2)ncc1F` [Example 5, N-{6-(Difluoromethyl)-4-[(methylsulfonyl)methyl]pyridin-2-yl}-5-fluoro-4-(4-fluoro-2-methoxyphenyl)pyridin-2-amine]: the IC50 at CDK2/CycE was 103 nM; on CDK9/CycT1 it was 2 nM.

Turning to `COc1cc(F)ccc1-c1cc(Nc2cc(CS(C)(=O)=O)cc(F)n2)ncc1F` [Example 3, 5-Fluoro-4-(4-fluoro-2-methoxyphenyl)-N-{6-fluoro-4-[(methylsulfonyl)methyl]pyridin-2-yl}pyridin-2-amine], the results for the 50% inhibitory concentration (IC50) at CDK2/CycE and against CDK9/CycT1 were 787 nM and 3 nM, respectively.
